Measured values as given in patent US7871808B2, “Isolated microorganism having an ability to produce L-histidine” (priority 1999, dated 2011).
Counter-ions that a name gives are not always drawn.

Tested on: mutant strain H-9341
Experiment: Comparative test of growth on agar plate culture medium containing primaquine (mutant strain)
Type: cell-based, Escherichia coli
Details: 150 mg/liter primaquine disodium salt in agar plate medium, 1 to 10 cells/cm^2, 33° C. for 4 days

Compound: COc1cc(NC(C)CCCN)c2ncccc2c1 (stereo not shown) [Primaquine disodium salt, primaquine disodium salt]
- Growth or non-growth of the strain on agar plate medium: +
